Here are results for 26 compounds from patent publication US9862684B2, “Modulation of K2P channels” (The Regents of the University of California, priority 2013, dated 2018).

Test [1] has as its target T1, TREK-1 (Mus musculus, UniProt P97438).
T1 construct: expressed in transfected cells
T1 sequence (P97438 1-411 isoform P97438-2): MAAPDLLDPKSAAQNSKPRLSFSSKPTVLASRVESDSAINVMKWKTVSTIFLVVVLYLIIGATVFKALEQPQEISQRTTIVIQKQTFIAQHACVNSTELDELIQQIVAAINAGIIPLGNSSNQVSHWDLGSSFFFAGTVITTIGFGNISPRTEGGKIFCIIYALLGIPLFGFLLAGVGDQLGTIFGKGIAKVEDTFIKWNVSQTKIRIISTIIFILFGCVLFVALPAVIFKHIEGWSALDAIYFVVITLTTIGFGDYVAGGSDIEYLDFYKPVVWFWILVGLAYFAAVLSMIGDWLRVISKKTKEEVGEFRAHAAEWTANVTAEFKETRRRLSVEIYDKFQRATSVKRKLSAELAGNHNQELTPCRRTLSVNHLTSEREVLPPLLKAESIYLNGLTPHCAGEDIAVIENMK
Description: Modulation of TREK-1 by select compounds (agonist activity), Table 3. Conditions: for EC50: agonist activity on TREK-1. Type of test: cell-based, Murine. As to the method:
(§1) Two-electrode voltage clamp recordings were performed from defolliculated stage V-VI Xenopus oocytes 24-48 hours after injection with 0.015-6.0 ng cRNA, using microelectrodes (0.3-3.0 MΩ) filled with 3M KCl. […] Recording solutions (mM): 2K (96 NaCl, 2 KCl, 1.8 CaCl2, 2 MgCl2), 90K (90 KCl, 8 NaCl, 1.8 CaCl2, 2 MgCl2), were buffered 5 mM HEPES pH 7.4. For K2P recordings, currents we elicited by a 1 second long ramp from −150 to +50 mV from a holding potential of −80 mV (2K), or −100 to +50 mV from a holding potential of 0 mV (90K). For KCNQ2 recordings, currents were elicited by a step protocol from −120 to 60 mV, in 20 mV increments, from a holding potential of −80 mV. […] Currents were elicited by a 1 second long ramp from −150 to +50 mV from a holding potential of −80 mV.

The target of test [2] is T2, K2P2.1 (TREK-1) (Mus musculus, UniProt P97438).
T2 construct: expressed in transfected cells; host or cells: Xenopus oocytes (cRNA injection, pGEMHE/pMO)
T2 sequence (P97438 1-411 isoform P97438-2): T1 sequence (P97438 1-411 isoform P97438-2)
Description: Two-electrode voltage clamp of Xenopus oocytes expressing K2P2.1 (TREK-1). Conditions: Xenopus oocytes; for effect on K2P2.1 (TREK-1) function / activity (in words): two-electrode voltage clamp. The class given is cell-based, Murine. How it is done: as §1
In general terms: Two-electrode voltage clamp is typically applied to oocytes expressing channels or transporters.

For the compound `O=C(O)CCN1c2ccc(Br)cc2C2(CCCCC2)c2cc(Br)ccc21` [ML67-147, 3-{2,7-dibromo-10H-spiro[acridine-9,1′-cyclohexane]-10-yl}propanoic acid], in test [1], the “comments (comparison with ML67-33 / ML67-142, dose-response remark)” value was “Not better than ML67-33”; the “% activity at 50 μM” value came to 84.1%; the EC50 (in general, the concentration that produces a half-maximal response) was more than 38.5 µM.
For the compound `Clc1ccc2c(c1)c1cc(Cl)ccc1n2CCc1nnn[nH]1` [ML67-18, 3,6-dichloro-9-[2-(1H-tetrazol-5-yl)ethyl]carbazole], the “Emax (fold)” value in test [2] (fold over basal current, no concentration stated) is reported as approximately 18 fold. Also, in test [1], a half-maximal effect (EC50) was put at 125 µM.
In the case of `Brc1ccc2c(c1)C1(CCCCC1)c1cc(Br)ccc1N2CCc1nnn[nH]1` [ML67-145, 2,7-dibromo-10-[2-(1H-1,2,3,4-tetrazol-5-yl)ethyl]-10H-spiro[acridine-9,1′-cyclohexane]], in test [1], the “comments (comparison with ML67-33 / ML67-142, dose-response remark)” value is on record as “Better than ML67-33; Not better than (ML67-142)” and the EC50 lay within 8.6 to 38.5 µM.
The matching figures for `O=C(O)CCn1c2ccccc2c2cc(I)ccc21` [ML67-14, 3-(3-iodocarbazol-9-yl)propanoic acid]: “No plateau” and more than 500 µM.
As for `C#Cc1ccc(S(=O)(=O)NC(=O)CCN2c3ccc(Br)cc3C3(CCCCC3)c3cc(Br)ccc32)cc1` [ML67-150, 3-{2,7-dibromo-10H-spiro[acridine-9,1′-cyclohexane]-10-yl}-N-(4-ethynyl-benzenesulfonyl) propanamide], in test [1], the “comments (comparison with ML67-33 / ML67-142, dose-response remark)” value is “Not better than ML67-33” and the half-maximal effective concentration (EC50) is more than 38.5 µM.
In the case of `c1ccc2c(c1)Oc1ccccc1N2CCc1nnn[nH]1` [ML67-35, 10-[2-(1H-tetrazol-5-yl)ethyl] phenoxazine], in test [1], the “comments (comparison with ML67-33 / ML67-142, dose-response remark)” value is “Not better than ML67-33”; the “% activity at 50 μM” value is 17.8%; the EC50 was more than 38.5 µM.
Regarding `O=C(O)CCN1c2ccc(Cl)cc2Sc2cc(Cl)ccc21` [ML67-26, 3-(3,7-dichloro-phenothiazin-10-yl)propanoic acid], in test [1], the “comments (comparison with ML67-33 / ML67-142, dose-response remark)” value is “No plateau” and the EC50 was approximately 200 µM.
For `O=C(O)CCn1c2ccccc2c2ccccc21` [ML67-2, 3-carbazol-9-ylpropanoic acid], the “Emax (fold) at 500 μM” value in test [2] (at 500 μM) is 1.3 ± 0.1 at 500 μM fold. The “effect on K2P2.1 (TREK-1) function / activity (in words)” value in test [2] was “reduced activity”.
For `OCc1ccc2c(c1)C1(CCCCC1)c1cc(Br)ccc1N2CCc1nnn[nH]1` [ML67-146, 2-bromo-10-[2-(1H-1,2,3,4-tetrazol-5-yl)ethyl]-10H-spiro[acridine-9,1′-cyclohexane]-7-ylmethanol], in test [1], the “comments (comparison with ML67-33 / ML67-142, dose-response remark)” value is “Not better than ML67-33”; the “% activity at 50 μM” value was found to be 25.9%; the EC50 is more than 38.5 µM.
As to `CC1(C)c2ccccc2N(CCc2nnn[nH]2)c2ccccc21` [ML67-39, 9,9-dimethyl-10-[2-(1H-tetrazol-5-yl)ethyl]acridine], in test [1], the “comments (comparison with ML67-33 / ML67-142, dose-response remark)” value was “Not better than ML67-33”; the “% activity at 50 μM” value is on record as 29.2%; the concentration giving a half-maximal response (EC50) is more than 38.5 µM.
`Clc1ccc2c(c1)C1(CCCC1)c1cc(Cl)ccc1N2CCc1nnn[nH]1` [ML67-138, 2,7-dichloro-10-[2-(1H-tetrazol-5-yl)ethyl]spiro [acridine-9,1′-cyclopentane]]: in test [1], the half-maximal effective concentration (EC50) was found to be 18.3 µM.
As to `Clc1ccc2c(c1)C1(CCOCC1)c1cc(Cl)ccc1N2CCc1nnn[nH]1` [ML67-139, 2,7-dichloro-10-[2-(1H-yl)ethyl]spiro [acridine-9,4′-oxane]], in test [1], the “comments (comparison with ML67-33 / ML67-142, dose-response remark)” value is “Not better than ML67-33”; the “% activity at 50 μM” value was found to be 60.7%; the EC50 is more than 38.5 µM.
The like results for `O=C(O)CCN1c2ccc(Cl)cc2C2(CCCCC2)c2cccc(Cl)c21` [ML67-140, 3-(2,5-dichlorospiro [acridine-9,1′-cyclohexane]-10-yl)propanoic acid] were, in that order, “Not better than ML67-33”, 57.7% and more than 38.5 µM.
In the case of `O=C(O)CCCn1c2ccc(Cl)cc2c2cc(Cl)ccc21` [ML67-15, 4-(3,6-dichlorocarbazol-9-yl) butanoic acid], the “Emax (fold) at 200 μM” value in test [2] (at 200 μM) came out at 4.7 ± 0.9 at 200 μM fold. Also, in test [2], the “effect on K2P2.1 (TREK-1) function / activity (in words)” value is on record as “did not significantly improve potency”.
For `CC1(C)c2cc(Br)ccc2N(CCc2nnn[nH]2)c2ccc(Br)cc21` [ML67-137, 2,7-dibromo-9,9-dimethyl-10-[2-(1H-tetrazol-5-yl)ethyl]acridine], the “Emax (fold) at 100 μM” value in test [2] (at 100 μM (FIG. 4, 7 legends), marked ** in Table 1, footnote not given) is recorded as 9.2 ± 1.4** fold. The “effect on K2P2.1 (TREK-1) function / activity (in words)” value in test [2] is “did not significantly improve activity”. In addition, in test [1] (10 μM), the “% activity at 10 μM” value is on record as 80%. For the same compound, the “% activity at 50 μM” value in test [1] was 100%.
On to `O=C(O)CCN1c2ccc(Cl)cc2C2(CCCCC2)c2cc(Cl)ccc21` [ML67-141, 3-(2,7-dichlorospiro [acridine-9,1′-cyclohexane]-10-yl)propanoic acid], for which, in test [1], the “comments (comparison with ML67-33 / ML67-142, dose-response remark)” value was “Better than ML67-33; not better than (ML67-142)” and the 50% effective concentration (EC50) lay within 8.6 to 38.5 µM.
Take `Brc1ccc2c(c1)Sc1cc(Br)ccc1N2CCc1nnn[nH]1` [ML67-37, 3,7-dibromo-10-[2-(1H-tetrazol-5-yl)ethyl] phenothiazine]: in test [1], the “comments (comparison with ML67-33 / ML67-142, dose-response remark)” value is on record as “Not better than ML67-33”; the “% activity at 50 μM” value came to 96%; the concentration for a half-maximal effect (EC50) was more than 38.5 µM.
Turning to `CS(=O)(=O)NC(=O)CCN1c2ccc(Br)cc2C2(CCCCC2)c2cc(Br)ccc21` [ML67-148, 3-{2,7-dibromo-10H-spiro[acridine-9,1′-cyclohexane]-10-yl}-N-methanesulfonyl-propanamide], in test [1], the “comments (comparison with ML67-33 / ML67-142, dose-response remark)” value is “Better than ML67-33; Not better than (ML67-142)” and the EC50 is 8.6 to 38.5 µM.
For the compound `c1ccc2c(c1)Sc1ccccc1N2CCc1nnn[nH]1` [ML67-36, 10-[2-(1H-tetrazol-5-yl)ethyl] phenothiazine], the EC50 in test [1] is more than 38.5 µM.
`Clc1ccc2c(c1)C1(CCCCC1)c1cc(Cl)ccc1N2CCc1nnn[nH]1` [ML67-142, 2,7-dichloro-10-[2-(1H-tetrazol-5-yl)ethyl]spiro [acridine-9,1′-cyclohexane]] had a 50% effective concentration (EC50) in test [1] of 8.6 µM.
`O=C(O)CCC(CN1c2ccc(Br)cc2C2(CCCCC2)c2cc(Br)ccc21)C(=O)O` (stereo not shown) [ML67-152, 2-{2,7-dibromo-10H-spiro[acridine-9,1′-cyclohexane]-10-ylmethyl} pentanedioic acid]: in test [1], the “comments (comparison with ML67-33 / ML67-142, dose-response remark)” value is recorded as “No better than ML67-33”; the “% activity at 50 μM” value was found to be 45%; the concentration for a half-maximal effect (EC50) is more than 38.5 µM.
The matching figures for `Brc1ccc2c3ccc(Br)cc3n(CCc3nnn[nH]3)c2c1` [ML67-34, 2,7-dibromo-9-[2-(1H-tetrazol-5-yl)ethyl]carbazole]: “Not better than ML67-33”, 13.4% and more than 38.5 µM.
In the case of `Clc1ccc2c(c1)C1(CCCCC1)c1cccc(Cl)c1N2CCc1nnn[nH]1` [ML67-143, 2,5-dichloro-10-[2-(1H-tetrazol-5-yl)ethyl]spiro [acridine-9,1′-cyclohexane]], in test [1], the “comments (comparison with ML67-33 / ML67-142, dose-response remark)” value is “Better than ML67-33; Not better than (ML67-142)” and the concentration giving a half-maximal response (EC50) lay in the range of 8.6 to 38.5 µM.
In test [1], `Clc1ccc2c(c1)c1cc(Cl)ccc1n2[C@H]1C[C@H](c2nnn[nH]2)C1` [ML67-30, 3,6-dichloro-9-[3-(1H-tetrazol-5-yl)cyclobutyl] carbazole (trans)] came in with an EC50 of less than 125 µM.
Take `Brc1ccc2c(c1)Oc1cc(Br)ccc1N2CCc1nnn[nH]1` [ML67-38, 3,7-dibromo-10-[2-(1H-tetrazol-5-yl)ethyl] phenoxazine]: in test [1], the “comments (comparison with ML67-33 / ML67-142, dose-response remark)” value was “Not better than ML67-33”; the “% activity at 50 μM” value came out at 68.8%; the half-maximal effective concentration (EC50) was more than 38.5 µM.
In the case of `c1ccc2c(c1)N(CCc1nnn[nH]1)c1ccccc1C21CCCCC1` [ML67-144, 10-[2-(1H-tetrazol-5-yl)ethyl]spiro [acridine-9,1′-cyclohexane]], in test [1], the “comments (comparison with ML67-33 / ML67-142, dose-response remark)” value is “Not better than ML67-33”; the “% activity at 50 μM” value came out at 32.3%; the EC50 is more than 38.5 µM.
